Columns and labels:
[1] = system: arterial blood pressure, conscious rat; test: Effects on blood pressure in vivo, conscious rat; set-up: species or system Sprague-Dawley rats
Experimental: Effects on blood pressure in vivo
The rats were fasted overnight before the day of the experiment.
On the day of experiment, the rats were brought into the laboratory and their blood pressure and heart rate was recorded over about 30 minutes. The test substances, suspended in 0.5% methylcellulose, were then administered perorally via a stomach tube (volume: 3 ml/kg of body weight) and blood pressure and heart rate were measured over the next 6 hours. The percentage changes in the measured values in relation to the initial values were calculated and were determined for groups of 3-4 similarly treated animals.

[2] = system: rings of aorta; test: Effects on vessel muscle in vitro (aorta rings, KCl depolarization); set-up: species or system rats; conditions: rat aorta rings contracted with 25 mM KCl; read-out: B IC50 (rings of aorta)
Experimental: Effects on vessel muscle in vitro
Male rats weighing about 300 g are killed painlessly by a blow to the neck and quickly exsanguinated. The thoracic cavity is opened and the aorta is carefully resectioned. It is placed in a Petri dish filled with Krebs solution, and surrounding connective and fatty tissue is removed. Two rings are prepared. The rings are each suspended in an organ bath. They are attached at the bottom to a hook and at the top to an electrical force transducer which is able to measure precisely contractions of 0-10 grams in strength. The measured contractions are amplified by means of a bridge amplifier and recorded with a thermal plotter.
(§1) The organ baths are filled with Krebs solution at 37° C. through which an O2 /CO2 mixture is bubbled thoroughly and which has the following composition (mmol/1): NaCl 118.4; KCl 4.7; CaCl2 2.5; KH2 PO4 1.2; MgSO4 1.2; NaHCO3 25; glucose 11.
The rings are stretched with a basic tone of about 0.5 g. After an equilibration time of about 30 minutes, the rings are caused to undergo contraction by depolarization (addition of 25 mM KCl to the organ bath). The contractions of the rings of aorta, triggered by the depolarization, quickly reach a plateau. As soon as this plateau is reached ("100% value"), the test substance is added to the organ bath, initially at low concentrations, for example 10^-8 M, and then in increasing doses at regular intervals, until the contractions reduce or the final concentration of 10^-4 M is reached. Each test substance is tested 2-4 times in this way.
For purposes of evaluation, the height of the contractions registered on the plotter paper is measured for each experiment after the action of each test concentration added. The IC50 value can be calculated in this way in relation to the original height of contractions before the addition of substance (100%). IC50 values are shown in column B of Table 1.

[3] = system: bladder strips; test: Effects on the bladder muscle in vitro (relaxant effect on bladder strips); set-up: species or system guinea pigs; conditions: Cavia porcellus; guinea pig bladder strips; contractions triggered by electrical stimulation or KCl depolarization; read-out: A IC50 (concentration which reduces contraction of bladder strips by 50%)
Experimental: Effects on the bladder muscle in vitro
In these experiments, the IC50 value denotes the concentration of a substance which reduces contraction by 50%.
Male albino guinea pigs weighing about 400 g are killed painlessly by a blow to the neck and quickly exsanguinated. The abdominal cavity is opened and the bladder is carefully resectioned. It is placed in a Petri dish filled with Krebs solution, and surrounding connective and fatty tissue is removed. Two horizontal strips of tissue are prepared. With the aid of two threads which are attached to both ends of the strips of tissue, the strips are suspended in an organ bath. They are fastened at the bottom to a hook and at the top to an electric force transducer which is able to measure precisely contractions of 0-10 g in strength. The measured contractions are amplified by means of a bridge amplifier and are recorded with a thermal plotter. The signals obtained can also be integrated electronically on another plotter channel in order to quantify in-phase contractions.
as §1
The strips are stretched with a basic tone of about 0.5 g. After an equilibration time of about 30 minutes, one of the two strips is stimulated electrically every minute using built-in electrodes (period of stimulation 2 seconds, 30 Hz, 0.5 ms pulse width, 10 volts) in order to trigger short-term contractions. The other strip is made to exert in-phase contraction by depolarization (addition of […] KCl to the organ bath). Both the contractions triggered by electrical stimulation and those initiated by depolarization and occurring in the strips of bladder muscle quickly reach a plateau. As soon as this plateau is reached ("100% value"), the test substance is added to the organ bath, initially at 10w concentrations, for example 10^-8 M, and then in increasing doses at regular intervals, until the contractions reduce or the final concentration of 10^-4 M is reached. Each test substance is tested 2-4 times in this way.
For purposes of evaluation, the height of the contractions registered on the plotter paper is measured for each experiment after the action of each test concentration added. The IC50 value can be calculated in this way in relation to the original height of contractions before the addition of substance (100%). All of the IC50 values are shown in column A of Table 1.

SMILES | IC50 [2] | IC50 [3] | Reduction in diastolic pressure, % of initial value ([1]; 6 mg/kg peroral, 30 min) | Reduction in diastolic pressure, % of initial value ([1]; 6 mg/kg peroral, 60 min) | Reduction in diastolic pressure, % of initial value ([1]; 6 mg/kg peroral, 120 min) | Reduction in diastolic pressure, % of initial value ([1]; 6 mg/kg peroral, 15 min) | Reduction in diastolic pressure, % of initial value ([1]; 18 mg/kg peroral, 15 min) | Reduction in diastolic pressure, % of initial value ([1]; 18 mg/kg peroral, 30 min) | Reduction in diastolic pressure, % of initial value ([1]; 18 mg/kg peroral, 60 min) | Reduction in diastolic pressure, % of initial value ([1]; 18 mg/kg peroral, 120 min) | Reduction in diastolic pressure, % of initial value ([1]; 1 mg/kg peroral, 15 min) | Reduction in diastolic pressure, % of initial value ([1]; 1 mg/kg peroral, 30 min) | Reduction in diastolic pressure, % of initial value ([1]; 1 mg/kg peroral, 60 min) | Reduction in diastolic pressure, % of initial value ([1]; 1 mg/kg peroral, 120 min)
CC(O)(C(=O)Nc1ccc(C(=O)c2ccccc2)s1)C(F)(F)F (stereo not shown) [Example 1, N-[5-(Phenylcarbonyl)thien-2-yl]-3,3,3-tri-fluoro-2-hydroxy-2-methylpropanamide] | 2.5 µM | 100 µM | 3 % of initial value | 2 % of initial value | 4 % of initial value |  |  |  |  |  |  |  |  | 
CC(O)(C(=O)Nc1ccc(S(=O)(=O)c2ccccc2)s1)C(F)(F)F (stereo not shown) [Example 4, N-[5-(Phenylsulfonyl)thien-2-yl]-3,3,3-trifluoro-2-hydroxy-2-methylpropanamide] | 1.2 µM | 1.7 µM | 5 % of initial value | 4 % of initial value | 6 % of initial value | 1 % of initial value | 0 % of initial value | 8 % of initial value | 10 % of initial value | 15 % of initial value |  |  |  | 
CC1(C)Oc2ccc(C#N)cc2C(N2CCCC2=O)C1O (stereo not shown) [V, cromakalim, reference compound] | 0.065 µM | 1 µM |  |  |  |  |  |  |  |  | 53 % of initial value | 49 % of initial value | 40 % of initial value | 26 % of initial value

The next lines start with results.

IC50 [2] | IC50 [3] | SMILES | Reduction in diastolic pressure, % of initial value ([1]; 6 mg/kg peroral, 30 min) | Reduction in diastolic pressure, % of initial value ([1]; 6 mg/kg peroral, 60 min) | Reduction in diastolic pressure, % of initial value ([1]; 6 mg/kg peroral, 120 min) | Reduction in diastolic pressure, % of initial value ([1]; 6 mg/kg peroral, 15 min) | Reduction in diastolic pressure, % of initial value ([1]; 18 mg/kg peroral, 15 min) | Reduction in diastolic pressure, % of initial value ([1]; 18 mg/kg peroral, 30 min) | Reduction in diastolic pressure, % of initial value ([1]; 18 mg/kg peroral, 60 min) | Reduction in diastolic pressure, % of initial value ([1]; 18 mg/kg peroral, 120 min) | Reduction in diastolic pressure, % of initial value ([1]; 1 mg/kg peroral, 15 min) | Reduction in diastolic pressure, % of initial value ([1]; 1 mg/kg peroral, 30 min) | Reduction in diastolic pressure, % of initial value ([1]; 1 mg/kg peroral, 60 min) | Reduction in diastolic pressure, % of initial value ([1]; 1 mg/kg peroral, 120 min)
20 µM | 100 µM | CC(O)(C(=O)Nc1ncc(C(=O)c2ccccc2)s1)C(F)(F)F (stereo not shown) [Example 2, N-[5-(Phenylcarbonyl)thiazol-2-yl]-3,3,3-trifluoro-2-hydroxy-2-methylpropanamide] | 8 % of initial value | 5 % of initial value |  | 2 % of initial value |  |  |  |  |  |  |  | 
10 µM | 50 µM | CC(O)(C(=O)Nc1nnc(C(=O)c2ccccc2)s1)C(F)(F)F (stereo not shown) [Example 3, N-[5-(Phenylcarbonyl)-1,3,4-thiadiazol-2-yl]-3,3,3-trifluoro-2-hydroxy-2-methylpropanamide] | 3 % of initial value | 2 % of initial value | 4 % of initial value |  |  |  |  |  |  |  |  | 
